Measured values as given in patent publication US20230348866A1, “BI[…] FOR THE PRODUCTION OF CANNABINOIDS AND OTHER […]” (The Regents of the University of California, priority 2019, published 2023).

How the values were obtained:
[1] = system: MatB pathway (RpMatB, CsAAE3, CsOLS, CsOAC); experiment: OA/DA production using the MatB pathway with additives; assay type: biochemical; conditions: titer at 4 hours relative to control
Procedure: (§1) OA/DA Reaction Conditions using MatB. The conditions for reactions using RpMatB to produce malonyl-CoA were as follows: 15 mM malonate, 5 mM hexanoate or 5 mM butyrate, 1 mM CoA, 4 mM ATP, 25 mM creatine phosphate, 10 mM KCl, 5 mM MgCl2 and 50 mM Tris pH 8.0, 1.3 μM RpMatB, 4.9 μM CsAAE3, 2.9 μM CsOLS, 46.6 μM CsOAC, 7.6 μM GsPpase, 2.6 μM ADK and 2 units of CPK (from Sigma Aldrich). For the additive reactions GPP (0.5-2 mM), OA (0.25-2 mM) and DA (0.25-5 mM) were added before the reaction was initiated.
For the time course, the reactions were quenched (see below) at various time points between 5 mins and 5 hours. The reactions with additives were quenched at 4 hours.
HPLC Sample Analysis. All samples were quenched by 4-fold dilution into methanol (samples with a higher concentration of analyte were diluted up to 10-fold). The protein precipitate was removed by centrifugation at 16,000×g for 5 minutes and the supernatant was transferred to an LC vial for analysis.
Samples were analyzed by reverse phase chromatography on a Syncronis C8 column (4.6×100 mm) using a Thermo Ultimate 3000 HPLC. The column compartment temperature was set to 40° C., and the flow rate was 1 mL/min. The sample inject volume was 20 μL (full loop). The compounds were separated using a gradient elution with water+0.1% TFA (solvent A) and acetonitrile+0.1% TFA (solvent B) as the mobile phase. Solvent B was held at 20% for the first minute. Then solvent B was increased to 95% B over 4 minutes, and held at 95% B for 3 minutes. The column was then re-equilibrated to 20% B for three minutes, for a total run time of 11 minutes. Standards were used to identify the retention time, and to produce an external standard curve for quantification.

OLS = biological target: T1, OLS (Cannabis sativa, UniProt B1Q2B6); experiment: OLS activity assay (inhibition by OA/DA); assay type: biochemical, C. sativa; conditions: for inhibition of OLS activity: individual enzymes screened, 250 μM OA or 1 mM DA
T1 construct: CsAAE3, CsOLS and CsOAC were synthesized and cloned into the pET28(+) vector with Nde1/Xho1 restriction sites; made in house; host or cells: E. coli C43 BL21 (DE3)
T1 sequence (B1Q2B6 with tags, fused parts or gaps): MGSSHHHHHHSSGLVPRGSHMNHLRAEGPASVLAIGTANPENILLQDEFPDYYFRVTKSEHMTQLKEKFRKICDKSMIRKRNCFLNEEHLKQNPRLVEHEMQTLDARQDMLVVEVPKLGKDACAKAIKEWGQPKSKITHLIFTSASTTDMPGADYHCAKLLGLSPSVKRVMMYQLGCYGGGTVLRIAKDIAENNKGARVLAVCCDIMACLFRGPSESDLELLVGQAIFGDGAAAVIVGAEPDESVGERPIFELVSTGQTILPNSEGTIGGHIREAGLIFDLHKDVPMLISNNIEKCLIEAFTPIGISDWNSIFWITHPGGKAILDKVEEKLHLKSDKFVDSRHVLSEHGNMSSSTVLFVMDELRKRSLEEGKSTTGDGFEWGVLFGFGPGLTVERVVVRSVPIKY
Procedure: OLS Activity Assay. For the inhibition experiments the conditions were altered to: 1 mM malonyl-CoA, 400 μM hexanoyl-CoA in 50 mM citrate buffer, pH 5.5 in a final volume of 200 μL. Either 1% ethanol, 250 μM OA or 1 mM DA was added to the reaction, and then the reactions were initiated by adding 0.65 mg/mL OLS. 50 μL aliquots were quenched at 2, 4, 6 and 8 minutes in 150 μL of methanol. The reactions were vortexed briefly and centrifuged at 16,000×g for 2 minutes to pellet the proteins. The supernatant was analyzed by HPLC. The raw peak areas of HTAL, PDAL and olivetol were summed and plotted against time to determine the rate. The rate of the OA supplemented reaction and the DA supplemented reaction were normalized to the ethanol control.

OA pathway = experiment: RpMatB reaction system with added GPP and NphB M31^S; assay type: biochemical; conditions: increasing GPP (0.5-2 mM)
Procedure: as §1
In an effort to reduce OA/DA inhibition, experiments were performed to remove OA/DA from the reaction as it is made by converting it directly into CBGA/CBGVA. To test this GPP and a stabilized CBGA synthase were added to the system (FIG. 6). The CBGA synthase used, NphB M31^S, is a stabilized version of the soluble enzyme designed previously (Valliere et al., Nat. Commun. 10:565, 2019). […] Experiments were performed to test the effect of GPP concentration on OA production. At just 500 μM GPP, OA production decreased 40% percent (FIG. 2C).

| Compound | reduction of OA production ([1]; 1 mM DA added at time zero) | inhibition of OLS activity (OLS) | decrease of OA production ([1]; 500 μM GPP added) | overall production of OA and CBGA (OA pathway) | reduction of DA production ([1]; 1 mM OA added at time zero) | inhibition of enzyme activity, comparison among enzymes (OLS; reaction relevant conditions) |
| --- | --- | --- | --- | --- | --- | --- |
| CCCc1cc(O)cc(O)c1C(=O)O [DA, divarinic acid] | 30% | strongly inhibited |  |  |  |  |
| CC(C)=CCC/C(C)=C/COP(=O)(O)OP(=O)(O)O [GPP, geranyl pyrophosphate] |  |  | 40% | decrease |  |  |
| CCCCCc1cc(O)cc(O)c1C(=O)O [OA, olivetolic acid] |  | strongly inhibited |  |  | 90% | CsOLS is the most inhibited |
